What is called melting point is the temperature of the solid-liquid transition.

Some results are limits rather than exact numbers.

`CCc1cc(C=CN2C(=O)c3ccccc3C2=O)c(=O)[nH]c1C` had a melting point of 296 to 298 °C. `CC(=O)Nc1ccc2c(c1)SC1(CC1)C2=O`: the melting point fell in the range of 195 to 196 °C. Under `CN(C)C=Nc1sc(C#N)c(Cl)c1C#N` stands 226 °C; under `CCC(c1ccc(O)cc1)c1ccc(O)cc1`, 131 to 133 °C. To `COCOc1ccc(Cl)cc1-c1cc(-c2cccc(N)c2)c(C#N)c(NC(=O)c2ccccc2)n1` belongs 174 to 175 °C. Under `CCN(C(=O)NS(=O)(=O)c1ccccc1)c1ccc(Cl)cc1` stands 145 to 146 °C; under `CC(C)(c1ccccc1)N(C(N)=O)C(C)(C)c1ccccc1`, 226 to 227 °C; under `CC(C)NC1=NS(=O)(=O)c2ccc(Oc3ccccc3)cc2N1`, 250 to 252 °C. With `CC(C)(C)c1nc(C=CC(=O)COc2ccccc2)nc(C(C)(C)C)c1O`, the melting point was in the range of 98 to 100 °C. Take `CC(=O)NNc1ccc(N2C(=S)SCC2(O)c2ccccc2)cc1` (stereo unspecified): the melting point lay in the range of 80 to 84 °C. To `CCOC(=O)c1cn(C2CC2)c2cc(-c3cc(C(F)(F)F)nc(C(F)(F)F)c3)c(F)cc2c1=O` belongs 239 to 241 °C; to `COc1ccc(C2CCc3cc(Br)ccc3O2)cc1` (stereo unspecified), 121 to 123 °C.

`COc1cccc(NC(=O)C(N)=S)c1`: the melting point stood at 135 °C. The compound `C=CCN1CCC=C(c2csc(N)n2)C1` had a melting point of 129 to 132 °C. Under `CCC(=O)N1CCC(NC(=O)Nc2ccc(Br)cc2)CC1` stands 233 to 239 °C.

In turn, `N#Cc1c(Cl)c2cccnc2n(Cc2ccccc2)c1=O` yielded a melting point of 188 °C.

In turn, `CC(C)(C)OC(=O)N[C@@H](Cc1ccccc1)[C@@H](O)[C@@H](O)C1CC1` showed a melting point of 83 to 85 °C. Under `NC(=S)Nc1cc2ccccc2cn1` stands 225 to 227 °C; under `CS(=O)(=O)c1ccc(-c2cc(COCCO)nn2CC2CCCCC2)cc1`, 73 to 75 °C. Turning to `Cc1cc(NC(=O)NC(=O)c2ccccc2Cl)cc(C)c1Oc1ccc(Cl)c2c1CCCC2`, the melting point was in the range of 224 to 226 °C.

Compound `CCOCC1=NNC(=O)N(N=Cc2cccnc2)C1` registered a melting point of 156 to 158 °C.

In the case of `CCCc1nn(C)c2c(=O)[nH]c(Cc3ccc4[nH]c(=O)ccc4c3)nc12`, the melting point is greater than 300 °C. To `Nc1cccc(SCc2ccccc2)n1` belongs 65 to 66 °C; to `CC(C)(C)OC(=O)N1C[C@@H]([C@H](O)CO)CC1=O`, 92 to 94 °C; to `O=c1[nH]c2ccccc2c2nc(-c3ccc(Cl)cc3)nn12`, 315 to 318 °C. To `O=S(=O)(Nc1cccc2c(O)cccc12)N1CCOCC1` belongs 220 to 223 °C; to `CON=C(c1ncon1)c1ccccc1COc1ccc(Cl)cc1`, 107 to 108 °C; to `CCc1ccc(OC(CC)C(=O)OC2CC(O)C=C3C=CC(C)C(CCC4CC(O)CC(=O)O4)C32)cc1` (mixture of isomers), 139 to 140 °C. Under `Cc1[nH]c(=O)c(C#N)c2c1CC(C)CC2` (stereo unspecified) stands greater than 290 °C. In turn, `c1ccc2c(c1)Cc1sccc1CN2` had a melting point of 86 °C. Take `CO[C@@H](C(=O)N[C@H]1CC[C@@H](OC(=O)C2CCCC2)CNC1=O)[C@H](O)[C@@H](O)[C@H](O)/C=C/C(C)(C)C`: the melting point fell in the range of 75 to 76 °C. To `Cc1cccc(NC(=O)NC2N=C(C(C)C)c3cccc(C)c3N(CC(=O)C3CCCCC3)C2=O)c1` (stereo unspecified) belongs 142 to 146 °C; to `Cc1c(F)c(F)c(C(O)C#N)c(F)c1F` (stereo unspecified), 124 °C; to `CN(C)CCOc1cc2c(Nc3cccc(Br)c3)c(C#N)cnc2cn1`, 138 to 139 °C.

Consider `O=C(Nc1ccccc1)C1=NOCCS1(=O)=O`, for which the melting point was in the range of 206 to 207 °C. To `COCCN1CCN(CCc2ccc(Nc3ncc4c(n3)-c3ccccc3C(c3ccccc3)C4)cc2)CC1` (stereo unspecified) belongs 52 to 54 °C.

The compound `CCOC(=O)c1ncn2c1CN(C)C(=O)c1c-2cccc1[N+](=O)[O-]` displayed a melting point of 212 to 213 °C.

As to `O=C(OCc1ccccc1)c1cc(Cl)nc(Cl)c1`, the melting point lay in the range of 39 to 41 °C. To `OCc1ccc(I)cc1O` belongs 129 to 131 °C. Under `CS(=O)(=O)c1ccc(Br)cc1C(F)(F)F` stands 110 to 112 °C; under `COC(=O)c1cc(C(=O)OC)cc(-c2cc(C(F)(F)F)cc(C(F)(F)F)c2)c1`, 151 °C. Turning to `CCOC(=O)Cc1c(C)nn(-c2ccccc2)c1C`, the melting point was in the range of 86 to 87 °C. In turn, `COc1cccc2ccc(Cl)nc12` yielded a melting point of 90 to 92 °C. To `O=C(O)c1ccc2oc3ccccc3c(=O)c2c1` belongs greater than 280 °C. To `CC(=O)c1ccc(-c2cc(N3CCCCC3)c(C#N)c3c2-c2ccccc2C3)cc1` belongs 182 to 184 °C; to `CCC(=O)Nc1cccc(NC(=O)CC(C)=O)c1`, 70 °C; to `O=C(O)CCNC(=O)C(=Cc1ccc(C(F)(F)F)cc1)CS`, 108 °C. `COc1ccc(OC)c(C=CC(=O)C2C(=O)OC(=O)C(C(C)=O)=C2O)c1` (stereo unspecified): the melting point fell in the range of 194 to 195 °C. To `N#CCCn1cnc([N+](=O)[O-])c1` belongs 112 to 113 °C. `CC(C)(C)n1nc(-c2ccc(C(F)(F)F)cc2)c(C#N)c1N` gave a melting point of 155 to 156 °C. Under `CCOCCN(c1cccc2cc(C(N)=O)[nH]c12)S(=O)(=O)c1cccs1` stands 135 °C; under `CNC(=S)C1(c2cccnc2)CCCCC1=CCOc1ccc([N+](=O)[O-])cc1` (stereo unspecified), 201 to 202 °C. In the case of `O=C(O)C1=CS[C@@H]2[C@@H]([C@H](O)c3cn4c(n3)SCC4)C(=O)N12`, the melting point came out at 152 °C. Under `COc1cc(C(=O)c2sc(NC(=O)c3ccncc3)nc2-c2ccco2)ccn1` stands 237 to 239 °C; under `CC(=O)N(C)Cc1ccc2c(c1)C(Cc1ccnc(F)c1)(Cc1ccnc(F)c1)c1ccccc1-2`, 136 to 137 °C. To `Cn1nc(-c2nc(O)c(Cl)cc2F)c(Cl)c1OC(F)F` belongs 126 to 128 °C; to `O=C(Cn1ccnc1)C12CC3CC(CC(C3)C1)C2`, 130 °C; to `CN1C(=O)CC[C@]2(C)c3ccc(-c4ccc5c(c4)CCC5=O)cc3CC[C@@H]12`, 175 to 178 °C. With `CN(C)c1ccccc1CS(=O)c1nccn1-c1ccc(N)cn1` (stereo unspecified), the melting point fell in the range of 140 to 143 °C. Under `CC(=O)Oc1ccc(-c2ccc(C(C)=O)cc2)cc1` stands 124 to 126 °C; under `COC(=O)c1cc2nccnc2c(Cl)c1N`, 182 to 184 °C; under `Cc1[nH]c(=O)n(-c2cc(C(=O)OC(C)C)c(Cl)cc2F)c(=O)c1Cl`, 198 to 201 °C.

The compound `Clc1ccc(-c2nnnn2Cc2ccccc2)s1` came in with a melting point of 176 to 177 °C.

As to `Cc1c(C(=O)Nc2ccc(N3CCN(CCO)CC3)c(C#N)c2)cnn1-c1ccc(F)c(F)c1`, the melting point was in the range of 164 to 165 °C. Under `O=C1CCC(Cc2ccccc2)CC1` stands 40 to 44 °C; under `COC(=O)c1ccc2ccc(NC(=O)OC(C)(C)C)c(Br)c2c1`, 137 to 140 °C.

The values are drawn from a melting point compilation (Tetko et al.; mined from patent text by program, amines drawn as free bases though some values may be those of a salt).
